According to the supplement of paper PMC10599287:

What was measured:
[1] = compound: CCNC(=O)C#Cc1ccc2c(C(=Nc3ccc(CN(C)C)cc3)c3ccccc3)c(O)[nH]c2c1; assay: absolute IC70 (antiproliferative, propidium iodide); higher = less potent; conditions: exposure time: 4 days
Protocol: (§1)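 Modified propidium iodide survival/proliferation assay in 294 human tumor cell lines (2D monolayer for solid tumors, suspension for hematologic lines) after 4 days of continuous exposure to 10 concentrations in half-log steps from 0.001 to 30 µM. Absolute IC70 was fitted by four-parameter nonlinear regression of T/C × 100 (%) values; 30 µM is the top dose.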

[2] = compound: O=C(NOCCO)c1ccc2cncn2c1Nc1ccc(I)cc1F [GDC-0623]; assay: as above; conditions: exposure time: 4 days
Protocol: as §1

Row | Test System | absolute IC70 [1] [nM] | absolute IC70 [2] [nM]
1 | TFK-1 | 3450 | > 30000
2 | EVSA-T | 2240 | > 30000
3 | MDA-MB-453 | 2480 | > 30000
4 | Calu-1 | 3440 | > 30000
5 | SW579 | 279 | 204
6 | PC-3M | 161 | > 30000
7 | NCI-H82 | 2330 | > 30000
8 | MSTO-211H | 494 | 1480
9 | SF268 | 1330 | > 30000
10 | HCC1937 | 475 | > 30000
11 | RT112 | 42 | > 30000
12 | BT-549 | 1780 | > 30000
13 | U-937 | 348 | > 30000
14 | MDST8 | 55.5 | 6.01
15 | H-MESO-1 | 5670 | > 30000
16 | RXF_1220 | 4720 | > 30000
17 | LXFA_526 | 739 | 1320
18 | RKO | 21 | 125
19 | KG-1 | 33 | 25100
20 | MKN1 | 289 | > 30000
21 | RAMOS | 507 | > 30000
22 | HPAF-II | 285 | 79
23 | HH | 1370 | > 30000
24 | CXF_280 | 1550 | > 30000
25 | LEXFAL_2665 | 223 | > 30000
26 | SXFO_678 | 87 | > 30000

Row | Test System | absolute IC70 [1] [nM] | absolute IC70 [2] [nM]
27 | T24 | 353 | 46
28 | A204 | 614 | > 30000
29 | HPAC | 120 | > 30000
30 | SNB-75 | 1100 | 2680
31 | WSU-DLCL2 | 892 | > 30000
32 | 786-O | 1170 | > 30000
33 | HUT-78 | 72 | > 30000
34 | EGI-1 | 693 | > 30000
35 | OVXF_1023 | 14200 | > 30000
36 | BT-474 | 4060 | > 30000
37 | SNU-739 | 1380 | > 30000
38 | DMS-273 | 5120 | > 30000
39 | OCUM-1 | 25 | 11
40 | CXF_260 | 324 | 194
41 | MCF 10A | 31 | 48
42 | DoTc2-4510 | 260 | > 30000
43 | SXFS_1301 | 3850 | > 30000
44 | ACHN | 765 | > 30000
45 | EJM | 2820 | > 30000
46 | NCI-H441 | 1340 | > 30000
47 | MIA-PaCa-2 | 103 | 5
48 | NCI-H522 | 102 | 30000
49 | GXA_3080 | 114 | 117
50 | EFO-21 | 2140 | > 30000
51 | OVXF_899 | 457 | 14700
52 | OCI-AML2 | 7 | < 1

Row | Test System | absolute IC70 [1] [nM] | absolute IC70 [2] [nM]
53 | LXFL_1674 | 1050 | > 30000
54 | JHH-6 | 1140 | > 30000
55 | CAL-51 | 61 | > 30000
56 | JURL-MK1 | 149 | 11
57 | A-431 | 30 | 563
58 | U-2-OS | 162 | 530
59 | LXFL_529 | 329 | 233
60 | OCI-LY18 | 494 | > 30000
61 | DETROIT562 | 3090 | > 30000
62 | RAJI | 4790 | > 30000
63 | NCI-H322M | 391 | 105
64 | KU-19-19 | 56 | 22
65 | PXF_1752 | 1860 | > 30000
66 | KCL-22 | 250 | > 30000
67 | HCC33 | 2050 | > 30000
68 | PC-9 | 622 | > 30000
69 | SW1463 | 323 | 14.3
70 | LXFA_737 | 225 | > 30000
71 | SNU-620 | 225 | > 30000
72 | NCI-H2171 | 24 | > 30000
73 | HL-60 | 27 | 6
74 | NCI-H69 | 1340 | > 30000
75 | COLO-678 | 3000 | > 30000
76 | CCRF-CEM | 13 | > 30000
77 | CAL-33 | 346 | 517
78 | MOLP-2 | 3650 | > 30000

Row | Test System | absolute IC70 [1] [nM] | absolute IC70 [2] [nM]
79 | H69AR | 688 | > 30000
80 | RPMI-2650 | 2150 | > 30000
81 | GXA_3013 | 3280 | > 30000
82 | UXF_1138 | 6 | > 30000
83 | RH-30 | 794 | 24600
84 | SNU-1 | 3000 | > 30000
85 | SK-BR-3 | 4070 | > 30000
86 | MDA-MB-231 | 120 | 78
87 | MEG-01 | 20 | 8
88 | Saos-2 | 593 | > 30000
89 | EM-2 | 277 | 192
90 | HEC-1-A | 1580 | > 30000
91 | A-253 | > 30000 | > 30000
92 | OE21 | 2210 | > 30000
93 | NCI-H1975 | 409 | > 30000
94 | PXF_698 | 301 | > 30000
95 | U-251MG | 1180 | 783
96 | Hs 729 | 8020 | > 30000
97 | HNXF_1853 | 641 | 451
98 | MFE-319 | 370 | 5170
99 | HT-115 | 14.4 | 57.6
100 | SNU-601 | 3000 | > 30000
101 | T47D | 6840 | > 30000
102 | DU-145 | 569 | 1240
103 | HCT-15 | 1440 | > 30000
